Results taken from patent US20250017888A1, “COMPOUNDS FOR TREATING DISEASES ASSOCIATED WITH HYALURONAN OVERPRODUCTION” (THE ROYAL VETERINARY COLLEGE, priority 2021, published 2025).

Tests used:
Str/ort mice [1] = test: Micro-CT of tibial trabecular and cortical bone in Str/ort mice; assay type: in vivo, mouse; conditions: 10-90% of total tibial length, vs vehicle
fibroblasts = test: Alamar blue staining of fibroblasts; assay type: cell-based; conditions: Fibroblast
Protocol: (§1) The hyaluronan synthase activity (Prehm, P. and Schumacher, U., Biochem. Pharmacol. 2004, 68, 1401-1410), the cytotoxicity of the drugs (O'Brien, J. et al., Eur. J. Biochem. 2000, 267, 5421-5426), proteoglycan synthesis rate, hyaluronan (Prehm, P. J. Rheumatol., 2005, 32, 690-696) and proteoglycan (Bjornsson, S. Anal. Biochem. 1993, 210, 282-291) were determined as described. The effect of the prenylflavonoids on the MRP5 export rate was measured with fluorescein diacetate as described (Schulz, T., Schumacher, U., and Prehm, P., J Biol. Chem., 2007, 282, 20999-21004). The determination of the IC50 values on the phosphodiesterase 5 was performed according to the instructions of BPS Bioscience. The culture of bovine chondrocytes in alginate beads and of explants of bovine cartilage was described previously (Deiters, B. and Prehm, P. Arthritis Res. Ther., 2008, 10, R8; Prehm, P. J. Rheumatol. 2005, 32, 690-696). Osteoarthritic reactions were induced in chondrocytes growing in alginate beads by incubation with medium containing 10 ng/ml of II-17 for 6 days, and in cartilage explants with 10 ng/ml of II-17 and 5 ng/ml of II-1α. The supernatants were withdrawn and stored at −20° C. for later analysis. The explants were weighed and extracted with 1 ml of 4 M guanidinium-HCl for 72 hours at 4° C. The proteoglycan concentrations were determined in the extracts.

[2] = test system: bovine cartilage explants; test: Proteoglycan loss from interleukin activated bovine cartilage explants; assay type: cell-based
Protocol: Cartilage explants were weighed (average wet weight: 20 mg) incubated in the absence and presence of IL-1 (2 ng/ml) and the inhibitors at various concentrations for 5 days. The tissues were extracted with 1.5 ml of a solution of 4 M guanidinium hydrochloride, 0.1 M ε-aminohexanoid acid, 5 mM benzamidine, 10 mM N-ethylmaleinimide, 0.5 mM phenylmethylsulfonyl fluoride for 3 days at 4° C. The solution was centrifuged for 5 min at 10.000 g and the proteoglycans were determined in the supernatant by the alcian blue method as described (Bjornsson, S., Anal. Biochem., 1993, 210, 282-291).
Bovine cartilage explants were incubated in the absence and presence of interleukin for stimulation of osteoarthritic reactions and the indicated concentrations of the xanthohumol-betaine (FIG. 6A), xanthohumol-prothiazole (FIG. 6B), quercetin-prothiazole (FIG. 6C), quercetin (FIG. 6D) and xanthohumol (FIG. 6E) for 5 days. The cartilage explants were weighed and the proteoglycan concentrations were determined in the cartilage explants (solid bars) and culture supernatants (open bars).

Str/ort mice [3] = test: Micro-CT of tibial trabecular and cortical bone in Str/ort mice; assay type: in vivo, mouse
Protocol: At 10-13 weeks of age, 21 male Str/ort mice (n=7/group) were assigned randomly to vehicle, hylin-betaine and xantho-betaine groups and were treated intraperitoneally 18 weeks with either vehicle (5% DMSO in 95% peanut oil), 50 mg/kg compound of Example 1 (“hylin-betaine”) in 5% DMSO and 95% peanut oil or 50 mg/kg compound of Example 2 (“xantho-betaine”) in 5% DMSO and 95% peanut oil. Micro-CT scanning and analysis were performed as described previously. Briefly, tibiae from vehicle, hylin-betaine and xantho-betaine treated groups were scanned using the Skyscan 1172 (Skyscan, Kontich, Belgium), with x-ray tube operated at 50 kV and 200 Micro-A, 1600 ms exposure time with a 0.5 mm aluminium filter and a voxel size of micro-m 5. The scanning time for each sample was approximately 2 hours. The slices were then reconstructed using NRecon 1.6.9.4 (Skyscan, Kontich, Belgium). 2D/3D analyses were performed using CTAn 1.15.4.0+ version software (Skyscan, Kontich, Belgium). Additionally, 3D visualization and production of colour-coded images of trabecular, cortical and skull bones were conducted using Avizo 9.0.0 software (FEI, Oregon USA). • a. Trabecular analysis: prior to analysis, Micro-CT images were re-oriented in DataViewer 1.5.0 (Skyscan, Kontich, Belgium), such that the cross-section within the transverse plane was perpendicular to the long axis of the bone. Tibial length was measured in CTAn 1.15.4.0+ software using a straight line measuring tool and the appearance of the trabecular ‘bridge’ connecting the two primary spongiosa bone ‘islands’ was set as reference point for analysis of the metaphyseal trabecular bone adjacent to the epiphyseal growth plate. 5% of the total bone length from this point (towards the diaphysis) was utilised for trabecular analysis of the proximal tibia. The trabecular region of interest was drawn freehand using the selection tool of CTAn, a few voxels away from the endocortical surfaces in order to avoid inclusion of remnants of primary spongiosa associated with cortical bone. The selected trabecular regions of interests were analysed using CTAn BatMan software (Skyscan, Kontich, Belgium) and morphometric parameters were recorded. • b. Whole bone cortical analysis: Whole bone analysis was performed on datasets derived from CT scans using BoneJ (version 1.4.0), an ImageJ plugin. Following segmentation, alignment and removal of fibula from the dataset, a minimum bone threshold was selected using a histogram based method in ImageJ which utilises all pixels in a stack to construct a histogram and was further confirmed using ImageJ “threshold function”. The threshold ranged between 22000-22100 and was applied to all datasets to separate higher density bone from soft tissues and air. This threshold was used in “Slice Geometry” function within BoneJ to calculate bone cross sectional area (CSA), second moment of area around the minor axis (Imin), second moment of area around the major axis (Imax), mean thickness determined by local thickness in two dimensions (Ct.Th), ellipticity and resistance to torsion (J). The most proximal (15%) and the most distal portions (25%) of tibial length were excluded from analysis, as these regions include trabecular bone.

[4] = Alamar blue toxicity assay (FIG. 1); assay type: cell-based; conditions: below concentrations of 100 μM
Protocol: as §1
The toxicity was determined by the Alamar blue assay.

chondrosarcoma cells = test: Uptake of flavonoids into chondrosarcoma cells by intracellular fluorescence; assay type: cell-based; conditions: concentration dependence, FIG. 2A
Protocol: Confluent monolayers of chondrosarcoma cells on 96 well microtiter plates were incubated with 100 μM solutions of flavonoids in serum-free Quantum medium. Changes in fluorescence were monitored from the bottom of the wells at excitation and emission wavelengths of 340 nm and 450 nm for xanthohumol and at 440 nm and 530 nm for quercetin, respectively.
Flavonoids are weakly fluorescent in aqueous buffer, but greatly enhance the fluorescence in the presence of proteins (Sengupta, B. and Sengupta, P. K., Biochem. Biophys. Res. Commun., 2002, 299, 400-403). This property was used to follow the uptake of quercetin and xanthohumol into chondrosarcoma cells.

Compound: COc1cc(O)c(CC=C(C)C)c(O)c1C(=O)/C=C/c1ccc(OC(=O)C[N+](C)(C)C)cc1.[Cl-] [Xantho-betaine, (E)-2-(4-(3-(2,4-dihydroxy-6-methoxy-3-(3-methylbut-2-en-1-yl)phenyl)-3-oxoprop-1-en-1-yl)phenoxy)-N,N,N-trimethyl-2-oxoethanaminium chloride]
- effect on cortical bone (overall) (Str/ort mice [1]): significantly alter
- IC50 (fibroblasts): 80 µM
- IC50 ([2]; Bos taurus, read-out: IC50 Inhibition of proteoglycan loss): 0.3 µM
- inhibition of proteoglycan loss (protective effect) ([2]; interleukin stimulated, 5 days): similarly effective
- metaphyseal trabecular bone architecture and mass (tibial length, BV/TV, TV, BV, eccentricity, thickness, separation, number) (Str/ort mice [3]; 50 mg/kg intraperitoneally, 18 weeks, vs vehicle): do not alter
- cortical cross-sectional area (CSA) (Str/ort mice [3]; apart from one distal region and a region close to tibio-fibula junction): do not significantly
- predicted tibial resistance to torsion (J) (Str/ort mice [3]; multiple regions across tibial length, vs vehicle): higher
- mean cortical cross-sectional thickness (Str/ort mice [3]; multiple regions from −15-60% tibial length, vs vehicle): higher in some regions and lower in other regions
- second moment of area around minor axis (Imin) (Str/ort mice [3]; vs vehicle, one region proximally): significantly lowers
- tibial ellipticity (Str/ort mice [3]; vs vehicle, region ˜40-50% along the tibia): greater ellipticity
- second moment of area around major axis (Imax) (Str/ort mice [3]; vs vehicle, ˜35-55% of tibial length): significantly increased
- toxicity in Alamar blue assay [4]: not toxic
- uptake into chondrosarcoma cells (intracellular fluorescence) (chondrosarcoma cells): taken up in a concentration dependent manner
